Data set [1] can be described thus: Binary drug-excipient compatibility study (open dish). In kind it is physicochemical. Here is the method: A binary drug-excipient compatibility study was conducted to identify suitable excipients for capsule formulation. Considering the low dose formulation where diluent constitutes majority of the composition, API to diluent ratio was 1:400; for other excipients, the ration was 1:50.
Drug substance and excipients were dispensed at predetermined ratios, mixed using a vortex mixer for 30 seconds, and then dispensed into required number of vials for stability study. These vials (open dish condition) were exposed to 50° C./0% RH and 50° C./75% RH conditions for 2 and 4 weeks respectively. The control samples were stored in a refrigerator at 5° C. Selective samples were tested for chemical degradants and loss of chiral purity (conversion of S-isomer to R-isomer) after 2-weeks.
The following are the major degradation pathways that could be shelf-life limiting: (1) hydrolysis; (2) oxidation; and (3) loss of chiral purity. The total chemical impurities and chiral impurity levels of the samples after stressing for 2-weeks and 4-weeks are compared with the control samples which are shown in FIG. 1A and FIG. 1B, respectively.

Data set [2] is described as follows: pKa and pHmax of the HBr salt. Format: physicochemical.
Setting [3] is: control sample, stored at 5° C.

In data set [1] (2-weeks exposure at 50° C./75% RH, open dish), `Br.N#Cc1ccc(N2CCN(Cc3ccc(COc4cccc5c4CN([C@H]4CCC(=O)NC4=O)C5=O)cc3)CC2)c(F)c1` [Compound 1 HBr] showed a chemical impurity level of 0.35%. In data set [1] (4-weeks exposure at 50° C./75% RH, open dish), the chemical impurity level is reported as 0.77%. Further, the chiral impurity in data set [1] (4 weeks at 50° C./75% RH, open dish) is on record as 0.4%. In data set [1] (setting [3]), the chemical impurities was 0.2% and the chiral impurity is reported as 0.3%. Besides, the “change in chemical impurities or chiral impurity” value in data set [1] (dry condition (50° C.)) is reported as “no significant change”. In data set [2], the pHmax stood at 4.62 and the pKa (in general, the negative logarithm of the acid dissociation constant) was determined as 6.62.
